Laboratory results reported in US20190029987A1, “DIMETHYL FUMARATE (DMF) FOR PREVENTION OR TREATMENT OF GOUT, ACNE, DIABETES, VITILIGO AND/OR PYODERMA GANGRENOSUM” (UNIVERSITAT ZURICH, priority 2016, published 2019).

Key:
Nrf2 = Nrf2 stabilisation and nuclear accumulation in human primary keratinocytes (Western blot); format: cell-based; conditions: HPKs, 10 μM, FIG. 6E,F; for expression of the other Nrf2 complex proteins Keap1, Cul3, and Rbx1: 1 h; for stabilisation and nuclear accumulation of Nrf2 protein: harvested after 1 h
Description: Human primary keratinocytes (HPKs) constitutively express pro-IL-1β and inflammasome proteins.
FIG. 6: Bone marrow (BM) cells were isolated from Nrf2-deficient mice and wt litterfnates and differentiated into dendritic cells (DCs). (A, B) After priming with upLPS overnight, BMDCs were treated with the NLRP3 inflammasome activators nigericin (20 μM), zymosan (20 μg/ml), MSU (150 μg/ml), ATP (5 mM) or transfected with poly(dA:dT) (1 μg/ml) for activation of the AIM2 inflammasome. After 6 h, supernatants were analysed for secretion of IL-1β by (A) ELISA or (B) Western blot. Mock-treated but primed BMDCs were analysed for expression of inflammasome proteins and pro-IL-1β at the (C) mRNA level by qRT-PCR or at the (D) protein level by Western blot. (B, D) Duplicates from two individual mice per genotype are shown (biological replicates). (E-G) HPKs were treated with the Nrf2 activators SFN (10 μM), tBHQ (10 μM), DMF (50 μM) and 15d-PGJ2 (10 μM). After 1 h, the cells were harvested and analysed for expression of the indicated proteins using total cell lysates (E) or cytoplasmic and nuclear lysates (F). Western blots for the nuclear protein lamin NC and the cytoplasmic protein α-tubulin served as controls. Specific bands are marked with an asterisk. (G) Total RNA was isolated after 8 h and qRT-PCR was performed for quantification of expression of the Nrf2 target genes glutamate-cysteine ligase, catalytic subunit (GCLC), glutamate-cysteine ligase, modifier subunit (GCLM), and NAD(P)H dehydrogenase, quinone 1 (N001). (A-G) Representative experiments performed at least three times are shown. […] Mann-Whitney test was performed. […] Mann-Whitney test was performed. *P≤0.05

THP-1 cells = assay: Pyroptosis in inflammasome activated THP-1 cells (LDH release); format: cell-based, human; conditions: THP-1, 10 μM 30 min before nigericin, 2.5 h, FIG. 8D
Description: To determine the effects of Nrf2 activating compounds on inflammasome activation, the inventors treated keratinocytes with different doses of SFN, tBHQ, DMF or 15d-PGJ2 and irradiated the cells with UVB. […] As the Nrf2 activators were added to the cells only 15 to 30 min prior to inflammasome activation, it is unlikely that Nrf2 target genes are involved in inflammasome inhibition.
Supernatants were harvested and after centrifugation (400×g) used for analysis. Cells were lysed in culture medium with 2% Triton X-100 for 10 min, LDH activity was determined according to the manufacturer (Cytotox 96 nonradioactive cytotoxicity assay, Promega, Madison, US-WC).
FIG. 8: (A-C) HPKs were treated with the Nrf2 activating compounds (A) SFN, (B) DMF, and (C) 15d-PGJ2, irradiated with UVB 30 min later and harvested after 5 h. Analogous experiment as described in FIG. 2A for tBHQ. (D) THP-1 cells were differentiated with TPA for 3 d and primed with LPS overnight. Then, cells were treated with the solvent DMSO, SFN (10 μM) or 15-PGJ2 (10 μM). After 30 min the inflammasome was activated by nigericin treatment and cells and supernatants were harvested after 2.5 h. Western blots showing prolL-1β and mature IL-1p in the lysate and supernatant. […] IL-1β was quantified in the supernatant by ELISA and cytotoxicity by LDH release.

SMILES | expression of the other Nrf2 complex proteins Keap1, Cul3, and Rbx1 (Nrf2) | stabilisation and nuclear accumulation of Nrf2 protein (Nrf2) | pyroptosis (release of lactate dehydrogenase) (THP-1 cells)
CCCCCC=CC=C1C(=O)C=CC1CC=CCCCC(=O)O [15d-PGJ2, 15-deoxy-D-prostaglandin J2] | not affected | fast and robust stabilisation and nuclear accumulation of Nrf2 protein | strongly inhibited pyroptosis
C[S+]([O-])CCCCN=C=S (stereo not drawn) [SFN, sulforaphane] | not affected | fast and robust stabilisation and nuclear accumulation of Nrf2 protein | strongly inhibited pyroptosis
